Target: T1, CpGNA1 (Cryptosporidium parvum, UniProt Q5CPU3)
T1 construct: gene SSAT; E. coli BL21 Star; GST cut off with PreScission protease, GPLGS left at N terminus; dimer (sugar site formed by both monomers)
Assay: X-ray crystal structure, […] Å
Format: binding

T1 sequence (Q5CPU3 whole entry): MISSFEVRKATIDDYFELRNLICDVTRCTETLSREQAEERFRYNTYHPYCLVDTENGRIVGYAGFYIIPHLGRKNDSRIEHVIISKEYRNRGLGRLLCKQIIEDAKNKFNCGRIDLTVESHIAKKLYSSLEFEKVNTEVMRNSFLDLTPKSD

SMILES	X-ray crystal structure, 1.95 Å (crystal soaked with 50 mM Glc6P and 50 mM acetyl-CoA, pseudosubstrate in GlcN6P site)	X-ray crystal structure, 1.95 Å (cocrystallized with 10 mM acetyl-CoA, soaked with 50 mM acetyl-CoA and 50 mM Glc6P, acetyl-CoA site)
O=P(O)(O)OC[C@H]1OC(O)[C@H](O)[C@@H](O)[C@@H]1O (some centres unmarked) [Glc6P]	dimeric structure of CpGNA1 in complex with acetyl-CoA and glucose-6-phosphate (Glc6P)	
CC(=O)SCCNC(=O)CCNC(=O)[C@H](O)C(C)(C)COP(=O)(O)OP(=O)(O)OC[C@H]1O[C@@H](n2cnc3c(N)ncnc32)[C@H](O)[C@@H]1OP(=O)(O)O [acetyl-CoA]		dimeric structure of CpGNA1 in complex with acetyl-CoA and glucose-6-phosphate (Glc6P)
